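Five concentrations, 48 hours, 96-well plates. GI50: concentration for 50% inhibition of growth.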 Calls of active or inactive are those of the source. Cut-off read from the data, not from the text of the source: active = GI50 up to about 1.1 µM and inactive = higher.
Experiments:
Experiment in all cases: DTP human tumour cell line panel, 48 h
[1] = system: HOP-62
[2] = system: SR
[3] = system: OVCAR-5
[4] = system: UACC-257
[5] = system: MDA-MB-231
[6] = system: MDA-N
[7] = system: UO-31
[8] = system: SF-268
[9] = system: KM12
[10] = system: SF-295
[11] = system: A549
[12] = system: SK-MEL-28
[13] = system: M14
[14] = system: LOX IMVI
[15] = system: HOP-92
[16] = system: DU-145
[17] = system: HCT-116
[18] = system: MOLT-4
[19] = system: OVCAR-3
[20] = system: HCT-15
[21] = system: SN12C
[22] = system: UACC-62
[23] = system: T47D
[24] = system: A498
[25] = system: K562
[26] = system: NCI-H23
[27] = system: RXF 393
[28] = system: SK-OV-3
[29] = system: SNB-75
[30] = system: HL-60
[31] = system: NCI-H522
[32] = system: ACHN
[33] = system: SW-620
[34] = system: RPMI-8226
[35] = system: SK-MEL-2
[36] = system: SNB-19
[37] = system: OVCAR-8
[38] = system: MCF7
[39] = system: SK-MEL-5
[40] = system: NCI-H226
[41] = system: MDA-MB-435
[42] = system: Hs-578T
[43] = system: TK-10
[44] = system: HT-29
[45] = system: 786-0
[46] = system: U-251
[47] = system: NCI-H460
[48] = system: COLO 205
[49] = system: BT-549
[50] = system: SF-539
[51] = system: Malme-3M
[52] = system: EKVX
[53] = system: HCC 2998
[54] = system: CCRF-CEM
[55] = system: PC-3
[56] = system: IGROV-1
[57] = system: CAKI-1
[58] = system: OVCAR-4
[59] = system: NCI/ADR-RES

In the case of O=C(O)c1cccc(S(=O)(=O)NN2C(=O)CSC2c2ccc(Cl)cc2Cl)c1 (stereo unspecified), the GI50 [1] was 44.9 µM (inactive), the GI50 [2] was 17.6 µM (inactive) and the GI50 [3] was > 100 µM (inactive). For the same molecule, the GI50 [4] was 35.2 µM (inactive), the GI50 [5] was 43.5 µM (inactive) and the GI50 [6] was 24.7 µM (inactive). The GI50 [7] was > 100 µM (inactive), the GI50 [8] was 36.2 µM (inactive) and the GI50 [9] was 41.7 µM (inactive). The GI50 [10] was 51.6 µM (inactive), the GI50 [11] was > 100 µM (inactive) and the GI50 [12] was 23.2 µM (inactive). The GI50 [13] was 34.5 µM (inactive), the GI50 [14] was 34.2 µM (inactive) and the GI50 [15] was > 100 µM (inactive). For the same molecule, the GI50 [16] was > 100 µM (inactive), the GI50 [17] was 28.7 µM (inactive) and the GI50 [18] was 28.8 µM (inactive). For the same molecule, the GI50 [19] was 36.1 µM (inactive), the GI50 [20] was 30.2 µM and the GI50 [21] was 25.8 µM (inactive). For the same molecule, the GI50 [22] was 28.6 µM (inactive), the GI50 [23] was > 100 µM (inactive) and the GI50 [24] was > 100 µM (inactive). For the same molecule, the GI50 [25] was 24 µM (inactive), the GI50 [26] was 40.2 µM (inactive) and the GI50 [27] was 37.2 µM (inactive). The GI50 [28] was > 100 µM (inactive), the GI50 [29] was 30.2 µM (inactive) and the GI50 [30] was 12 µM (inactive). The GI50 [31] was 24.7 µM (inactive), the GI50 [32] was > 100 µM (inactive) and the GI50 [33] was 34.2 µM (inactive). For the same molecule, the GI50 [34] was 97.3 µM (inactive), the GI50 [35] was 32.3 µM (inactive) and the GI50 [36] was 49.5 µM (inactive). For the same molecule, the GI50 [37] was 15.4 µM (inactive), the GI50 [38] was 32.1 µM (inactive) and the GI50 [39] was > 100 µM (inactive). The GI50 [40] was 35.4 µM (inactive), the GI50 [41] was 21.2 µM (inactive) and the GI50 [42] was 19 µM (inactive). For the same molecule, the GI50 [43] was > 100 µM (inactive), the GI50 [44] was 32.5 µM (inactive) and the GI50 [45] was 16 µM (inactive). For the same molecule, the GI50 [46] was 21.4 µM (inactive), the GI50 [47] was 41.3 µM (inactive) and the GI50 [48] was > 100 µM (inactive). For the same molecule, the GI50 [49] was 29.1 µM (inactive), the GI50 [50] was 19.5 µM (inactive) and the GI50 [51] was 82.4 µM (inactive). For the same molecule, the GI50 [52] was 68.5 µM (inactive), the GI50 [53] was > 100 µM (inactive) and the GI50 [54] was 9.75 µM (inactive). The GI50 [55] was 94.2 µM (inactive), the GI50 [56] was > 100 µM (inactive) and the GI50 [57] was > 100 µM (inactive).

For O=P(O)(O)OC1O[C@H](CO)[C@H](O)[C@H](O)[C@H]1O (stereo partly specified), the GI50 [1] was > 100 µM (inactive), the GI50 [2] was > 100 µM (inactive) and the GI50 [3] was > 100 µM (inactive). For the same molecule, the GI50 [4] was > 100 µM (inactive), the GI50 [5] was > 100 µM (inactive) and the GI50 [6] was > 100 µM (inactive). For the same molecule, the GI50 [7] was > 100 µM (inactive), the GI50 [8] was > 100 µM (inactive) and the GI50 [9] was > 100 µM (inactive). For the same molecule, the GI50 [10] was > 100 µM (inactive), the GI50 [11] was > 100 µM (inactive) and the GI50 [12] was > 100 µM (inactive). For the same molecule, the GI50 [13] was > 100 µM (inactive), the GI50 [14] was > 100 µM (inactive) and the GI50 [15] was > 100 µM (inactive). For the same molecule, the GI50 [16] was > 100 µM (inactive), the GI50 [17] was > 100 µM (inactive) and the GI50 [19] was > 100 µM (inactive). For the same molecule, the GI50 [20] was over 100 µM, the GI50 [21] was > 100 µM (inactive) and the GI50 [58] was > 100 µM (inactive). The GI50 [22] was > 100 µM (inactive), the GI50 [23] was > 100 µM (inactive) and the GI50 [24] was > 100 µM (inactive). For the same molecule, the GI50 [25] was > 100 µM (inactive), the GI50 [26] was > 100 µM (inactive) and the GI50 [27] was > 100 µM (inactive). The GI50 [28] was > 100 µM (inactive), the GI50 [29] was > 100 µM (inactive) and the GI50 [30] was > 100 µM (inactive). For the same molecule, the GI50 [31] was > 100 µM (inactive), the GI50 [32] was > 100 µM (inactive) and the GI50 [33] was > 100 µM (inactive). The GI50 [34] was > 100 µM (inactive), the GI50 [35] was > 100 µM (inactive) and the GI50 [36] was > 100 µM (inactive). For the same molecule, the GI50 [37] was > 100 µM (inactive), the GI50 [38] was > 100 µM (inactive) and the GI50 [39] was > 100 µM (inactive). The GI50 [59] was > 100 µM (inactive), the GI50 [41] was > 100 µM (inactive) and the GI50 [42] was > 100 µM (inactive). The GI50 [43] was > 100 µM (inactive), the GI50 [44] was > 100 µM (inactive) and the GI50 [45] was > 100 µM (inactive). The GI50 [46] was > 100 µM (inactive), the GI50 [47] was > 100 µM (inactive) and the GI50 [49] was > 100 µM (inactive). The GI50 [51] was > 100 µM (inactive), the GI50 [52] was > 100 µM (inactive) and the GI50 [53] was > 100 µM (inactive). The GI50 [54] was > 100 µM (inactive), the GI50 [56] was > 100 µM (inactive) and the GI50 [57] was > 100 µM (inactive).

From ChEMBL document CHEMBL1201862, “PubChem BioAssay data set” (2004)
